Tested on: Huh7.5 cells
Assay: Supernatant infectivity titer, focus forming unit (FFU) method on Huh7.5 cells
Format: cell-based, human
Method: To determine the efficiency of the developed system, HCV RNA titers are determined in IU/ml (international units/ml) with Taq-Man Real-Time-PCR and infectious titers are determined with a focus-forming units (FFU) method: in this method, infectivity titers are determined by infection of cell culture replicates with serial dilutions of virus containing supernatants and, following immuno-stainings for HCV antigens, counting of HCV-antigen positive cell foci. Alternatively the infectious titers are determined as 50% tissue culture infectious dose.
Viral spread was monitored by HCV Core and NS5A immunostainings with mouse anti-HCV core protein monoclonal antibody (B2) (Anogen, Yes Biotech Laboratories) or anti-NS5A, 9E10, respectively, as described in the following section. For reporter viruses tagged with fluorescent reporter gene, viral spread was also monitored by direct visualization of the reporter gene by fluorescence microscopy. For reporter viruses tagged with hRLuc reporter gene, viral spread was also monitored by luminescence-based assay as described below. Supernatant infectivity titers were determined as 50% tissue culture infectious dose (TCID50)/mL or as focus forming units (FFU)/mL, as described in the following section. Supernatant HCV RNA titers were measured by a 5′ UTR based Real Time RT-PCR as described below.
Viral infectivity titers were determined by the tissue culture infectious dose 50 (TCID50) or focus forming unit method. 6×10^3/well naive Huh7.5 cells were plated out in a poly-D-lysine coated 96-well plate (Nunc) the day before infection. Cells were then incubated with 10-fold dilutions of cell culture supernatants. For TCID50 determinations, 6 replicates per dilution were incubated for 2-3 days. For FFU determinations, wells were incubated for 48 rs. After incubation, cells were permeabilized for 5′ with cold methanol. After washing 1× with PBS and 1× with PBS/Tween-20, blocking was carried out for 20′ with sterile filtered 1% BSA/0.2% skim milk in PBS followed by a 5′ blocking of endogenous peroxidase activity using 3% H2O2. Cells were washed as above and incubated with a 1:200 dilution of 1° Ab α-NS5A (9E10) in PBS/0.1% tween-20 over night at 4° C. After washing, a 1:300 dilution of 2° Ab HRP-goat anti-mouse IgG (H+L) (Amersham Biosciences) in PBS/0.1% tween-20 was added and incubated for 30′ at room temperature. Staining was developed using DAB substrate kit (DAKO) for 30′ after washing. In TCID50 determinations, wells were scored positive if one or more cells were infected, and the TCID50 was calculated according to the Reed and Muench method. TCID50 values are derived from single or multiple determinations as indicated. FFU determinations are based on counts of wells with 5-100 FFU and three independent virus dilutions with one replicate each. Counts were obtained by counting FFU by eye or by using automated counting on an ImmunoSpot Series 5 UV Analyzer (CTL Europe GmbH) with customized software kindly provided by CTL. From FFU counts in experimental wells, the mean of spot counts of at least 6 negative control wells was subtracted (˜usually 3 to 15 spots).

[1] = day 5 post transfection, Huh7.5
[2] = day 8 post transfection, Huh7.5

Row | Substance | Infectivity titer of transfection supernatant Log10 (FFU/mL) [1] | Infectivity titer of transfection supernatant Log10 (FFU/mL) [2] | Infectivity titer of transfection supernatant Log10 (FFU/mL) (day 5 post transfection, * another, independent transfection experiment) | Infectivity titer of transfection supernatant Log10 (FFU/mL) (day 7 post transfection, * another, independent transfection experiment)
1 | H77^5′UTR/HK6a^C-NS2/JFH1T1390C, A1591C: 6a Core-NS2 recombinant with heterotypic 1a (H77) 5′UTR | 3.60 Log10 (FFU/mL) | 3.23 Log10 (FFU/mL) |  | 
2 | S52^5′UTR/HK6a^C-NS2/JFH1T1388C, A1589C: 6a Core-NS2 recombinant with heterotypic 3a (S52) 5′UTR | 3.29 Log10 (FFU/mL) | 3.15 Log10 (FFU/mL) |  | 
3 | H77^5′UTR/J8^C-NS2/JFH1: 2b Core-NS2 recombinant with heterotypic 1a (H77) 5′UTR | 3.41 Log10 (FFU/mL) | 2.58 Log10 (FFU/mL) |  | 
4 | J4^5′UTR-NS2/JFH1T2997C, A4828T: 1b Core-NS2 recombinant with homotypic 1b (J4) 5′UTR | 2.47 Log10 (FFU/mL) | 2.07 Log10 (FFU/mL) |  | 
5 | HK6a^5′UTR-NS2/JFH1T1391C, A1592C: 6a Core-NS2 recombinant with homotypic 6a (HK6a) 5′UTR |  |  | 4.57 Log10 (FFU/mL) | 4.39 Log10 (FFU/mL)
6 | J8^5′UTR-NS2/JFH1: 2b Core-NS2 recombinant with homotypic 2b (J8) 5′UTR | 3.94 Log10 (FFU/mL) | 3.75 Log10 (FFU/mL) |  | 
7 | H77^5′UTR/J4^C-NS2/JFH1T2997C, A4828T: 1b Core-NS2 recombinant with heterotypic 1a (H77) 5′UTR | 3.32 Log10 (FFU/mL) | 2.49 Log10 (FFU/mL) |  | 
8 | S52^5′UTR/J8^C-NS2/JFH1: 2b Core-NS2 recombinant with heterotypic 3a (S52) 5′UTR | 3.08 Log10 (FFU/mL) | 2.10 Log10 (FFU/mL) |  | 
9 | S52^5′UTR-NS2/JFH1T2717G, A4549C: 3a Core-NS2 recombinant with homotypic 3a (S52) 5′UTR | 4.57 Log10 (FFU/mL) | 4.53 Log10 (FFU/mL) |  | 
10 | H77^5′UTR/S52^C-NS2/JFH1T2719G, A4551C: 3a Core-NS2 recombinant with heterotypic 1a (H77) 5′UTR | 4.07 Log10 (FFU/mL) | 4.22 Log10 (FFU/mL) |  | 
11 | S52^5′UTR/J4^C-NS2/JFH1T2995C, A4826T: 1b Core-NS2 recombinant with heterotypic 3a (S52) 5′UTR | 2.03 Log10 (FFU/mL) | 1.67 Log10 (FFU/mL) |  | 

From patent US8772022B2, “Hepatitis C virus expressing reporter tagged NS5A protein” (Hvidovre Hospital, priority 2008, dated 2014)
